# Assay results taken from patent US20240293395A1, “NALTREXONE FOR IMPROVING THE […] OF 5-HT RECEPTOR SUBTYPE 2A, 2B or 2C AGONISTS” (LDN Pharma Limited, priority 2021, published 2024).
# Key:
# [1] = tested on: 5-HT receptor 2B (HTR2B), mRNA; assay: Microarray gene expression in CD3+ lymphocytes, HTR2B probe ILMN_1735764; assay type: cell-based, human; conditions: 4 h, Illumina HT12-v3 array
# Experimental: (§1) CD3+ lymphocytes were isolated from the blood of haematologically normal volunteers. Cells placed into 25 cm3 flasks at a concentration of 1×10^6/ml, and left to equilibrate in an incubator with a humidified atmosphere and 5% CO2 in air at 37° C. […] RNA extraction was performed using Trizol according to standard procedures, before being processed for microarray analysis according to the standard methodologies. Briefly, equal amounts of biotinylated cRNA was hybridised to the Illumina human HT12-v3 arrays for 18 h and subsequently processed according to manufacturer's instructions before scanning on an Illumina BeadArray Reader. The image data were processed using default values in GenomeStudio v2009.1 with imputation of missing data, before loading onto GeneSpring v9.0 for data normalisation and filtering. Data analyses were performed using Excel software, and the ratio of gene expression signals in treated vs. untreated calculated.
# [2] = tested on: mRNA for one or more of 5-HT2A, 5-HT2B or 5-HT2C receptor proteins; assay: Microarray gene expression in CD3+ lymphocytes, summary statement over 5-HT2 receptors; assay type: cell-based, human; conditions: both higher dose (10 uM) and low dose (10 nM) naltrexone, 4 h
# Experimental: as §1
smiles,measurement,setting,value
"O=C1CC[C@@]2(O)[C@H]3Cc4ccc(O)c5c4[C@@]2(CCN3CC2CC2)[C@H]1O5 [NTX, morphinan-6-one, 17-(cyclopropylmethyl)-4,5-epoxy-3,14-dihydroxy-(5α)]","gene expression signal, LDN",[1]; low dose naltrexone 10 nM,147.45
same,"gene expression signal, NTX",[1]; naltrexone 10 uM,177.95
same,"levels of mRNA for one or more of 5-HT2A, 5-HT2B or 5-HT2C receptor proteins",[2],selectively increase the levels of mRNA
